Laboratory results taken from patent publication US20080161255A1, “Use of Parp Inhibitors for Prevention and Treatment of Diabetic and Insulin Resistance Complications” (priority 2003, published 2008).

Key:
prostacyclin synthetase = test: Arterial prostacyclin synthetase activity in insulin resistant Fatty Zucker Rats; format: in vivo; conditions: Fatty Zucker Rats treated for one week; untreated had only 1% of control Zucker rat activity
From the text: In order to examine whether this phenomenon was present in vivo, and thus had direct clinical relevance, we studied an accepted model of non-diabetic insulin resistance, the Fatty Zucker Rat. In these rats, we examined the activity of the endothelial cell surface enzyme prostacyclin synthetase, which produces a major anti-atherosclerotic product, prostacyclin. This enzyme is known to be directly inactivated by reactive oxygen species.

GAPDH [1] = test: Poly(ADP-ribosyl)ation of GAPDH (immunoprecipitation and western blotting); format: cell-based, bovine; conditions: adenoviral overexpression or 3 mM PJ34
Procedure: Immunoprecipitation. BAECs were plated in 100 mm cell culture plates and grown to confluency. Cells (2×10^7) were scraped from the plates, and 500 μg of protein was immunoprecipitated with 4 μg of the indicated antibody and 20 μl of Protein A Sepharose 4B (Amersham Phamacia Biotech) in binding buffer (final concentration […]).
Western blotting. Immunoprecipitated proteins electrophoresed on 10% PAGE gels were transferred onto nitrocellulose membranes. The immunoblots were developed with 1:1000 dilutions of anti-poly(ADPribose) IgG, and the signal was detected with the ECL System according to the manufacturer's instructions (Amersham Pharmacia Biotech). The images were scanned into a Molecular Dynamics FluorImager and analyzed using the ImageQuant 5.5 program.

GAPDH [2] = test: GAPDH activity in bovine aortic endothelial cells; format: cell-based; conditions: 30 mM glucose; adenoviral overexpression or 3 mM PJ34
Procedure: Cell culture conditions. Confluent bovine aortic endothelial cells (passage 4-10) were maintained in Eagle's MEM containing 0.4% FBS, essential and non-essential amino acid and antibiotics. […] Cells were infected with adenoviruses 48 hr prior to addition of 30 mM glucose. Oligonucleotide synthesis and treatment of cells. […] The S-antisense GAPDH had the following sequence: [NT]. Scrambled oligonucleotides ([NT]) were used as controls. Oligo solutions were prepared in 10 mM TRIS buffer, pH 7.4, containing 1 mM EDTA NaCl. […], and the solution was added to the cells for 2 hr. GAPDH activity. BAECs were grown to confluency, harvested by using trypsin-EDTA after washing twice with PBS, and resuspended in lysis buffer. […] Protein was measured by using the Bio-Rad Coomassie Plus Protein Assay System. GAPDH activity was determined as described previously (Garcia et al., 2001; Tau et al., 1994).

protein kinase C = test: Protein kinase C activity (membrane fraction) in bovine aortic endothelial cells; format: cell-based; conditions: 30 mM glucose plus PJ34
Procedure: (§1) Cell culture conditions. Confluent bovine aortic endothelial cells (passage 4-10) were maintained in Eagle's MEM containing 0.4% FBS, essential and non-essential amino acid and antibiotics. Cells were incubated for 3 days prior to determination of PKC activity, 48 hr prior to determination of hexosamine pathway activity, for 5 days prior to determination of advanced glycation end product formation, and for 6 hr prior to determination of NFκB activation. Cells were infected with adenoviruses 48 hr prior to addition of 30 mM glucose.
Protein kinase C activity. The assay was performed according to the manufacturer's instructions using the Protein Kinase C Assay System (Invitrogen, Carlsbad, Calif.).

[3] = system: intracellular AGE formation; test: Intracellular advanced glycation endproduct formation (quantitative immunoblotting); format: cell-based, bovine; conditions: 30 mM glucose plus PJ34
Procedure: as §1
Advanced glycation endproducts. Equal amounts of cell extract protein were used for quantitative immunoblotting performed as described (14). Methylglyoxal-derived imidazole advanced glycation endproducts were detected using monoclonal antibody 1H7G5 (identified above as IG7) at a 1:10,000 dilution. Immunocomplexes were visualized using an ECF kit according to the manufacturer's instructions (Amersham International, Piscataway, N.J.) and quantified using a Molecular Dynamics FluorImager and its ImageQuant 4.0 analytical software.

hexosamine pathway = test: Hexosamine pathway activity (UDP-GlcNAc concentration by HPLC); format: cell-based, bovine; conditions: 30 mM glucose plus PJ34
Procedure: as §1
Hexosamine pathway activity. Hexosamine pathway activity was assessed by measuring UDP-GlcNAc concentration. Cells were homogenized in three volumes (600 μl) of cold 0.6 M perchloric acid and kept at 0° C. for 10 min. The precipitated proteins were removed by centrifugation for 5 min at 13,500×g, and UDP-GlcNAc in the supernatant was determined by HPLC as previously described (13).

NFκB = NFκB activation (fluorescence in situ DNA-protein binding assay); format: cell-based, bovine; conditions: 30 mM glucose plus PJ34
Procedure: as §1
NFκB activation. A fluorescence in situ DNA-protein binding assay was performed in cultured cells as described (Kurose et al., 1997), and fluorescence per cell was determined using IP Lab Spectrum (Scanalytics, Fairfax, Va.).

[4] = system: bovine aortic endothelial cells; test: FFA-induced superoxide / reactive oxygen species generation in endothelial cells; format: cell-based; conditions: FFA-treated endothelial cells
From the text: FIG. 8 is a graph of experimental data showing the effects of inhibitors of free fatty acid (FFA) oxidation (TDGA), UCP-1, and MnSOD on FFA-induced superoxide generation in bovine aortic endothelial cells.
Since mitochondrial β-oxidation of fatty acids yields the same electron donors as those obtained from glucose metabolism, that is, NADH and FADH2, we hypothesized that increased free fatty acid flux from adipose tissue to vascular endothelium would also increase mitochondrial production of superoxide.

[5] = target: T1, poly(ADP-ribose) polymerase (Bos taurus, UniProt P18493); test: Poly(ADP-ribose) polymerase activity in aortic endothelial cells; format: cell-based, bovine; conditions: aortic endothelial cells incubated with oleic acid at levels found in non-diabetic insulin resistance subjects
T1 construct: endogenous in cells; host or cells: bovine aortic endothelial cells
Procedure: Poly(ADP-ribose) polymerase activity. Cells were incubated for 5 min at 37° C. in assay buffer containing 125 nmol NAD^+ spiked with 0.25 μCi of ^3H-NAD^+ (Amersham) as described (12). Enzyme activity was determined by measuring cpm incorporated into protein.

T1 sequence (P18493 whole entry): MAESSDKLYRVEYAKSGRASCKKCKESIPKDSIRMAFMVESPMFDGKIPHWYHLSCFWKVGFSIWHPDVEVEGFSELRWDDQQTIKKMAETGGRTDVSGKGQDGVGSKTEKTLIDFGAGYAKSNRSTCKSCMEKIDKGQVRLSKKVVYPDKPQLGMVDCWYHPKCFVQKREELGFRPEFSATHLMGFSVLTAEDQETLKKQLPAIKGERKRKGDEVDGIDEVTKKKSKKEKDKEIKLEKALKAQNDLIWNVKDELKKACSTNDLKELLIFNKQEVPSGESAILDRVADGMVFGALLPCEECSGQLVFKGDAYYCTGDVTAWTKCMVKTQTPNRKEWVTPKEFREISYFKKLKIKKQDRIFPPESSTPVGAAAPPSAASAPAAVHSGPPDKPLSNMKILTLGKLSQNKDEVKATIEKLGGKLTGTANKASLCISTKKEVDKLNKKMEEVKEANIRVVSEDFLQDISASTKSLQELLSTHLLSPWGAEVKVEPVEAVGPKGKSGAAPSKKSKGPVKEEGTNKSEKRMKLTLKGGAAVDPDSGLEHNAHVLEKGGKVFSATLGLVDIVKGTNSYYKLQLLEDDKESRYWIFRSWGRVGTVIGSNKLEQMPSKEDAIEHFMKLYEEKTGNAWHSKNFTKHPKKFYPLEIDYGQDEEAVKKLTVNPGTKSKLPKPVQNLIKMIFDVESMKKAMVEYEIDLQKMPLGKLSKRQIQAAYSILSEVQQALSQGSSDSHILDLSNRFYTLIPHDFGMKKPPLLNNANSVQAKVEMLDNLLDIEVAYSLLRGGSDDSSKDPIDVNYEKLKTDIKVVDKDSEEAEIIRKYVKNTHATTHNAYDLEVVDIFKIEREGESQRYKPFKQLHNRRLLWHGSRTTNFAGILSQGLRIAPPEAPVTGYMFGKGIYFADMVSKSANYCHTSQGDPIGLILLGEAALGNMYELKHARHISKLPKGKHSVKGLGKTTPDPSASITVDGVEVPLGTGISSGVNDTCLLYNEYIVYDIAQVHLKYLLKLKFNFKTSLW

Compound: O=C(O)c1ccc(-c2c3nc(c(-c4ccc(C(=O)O)cc4)c4ccc([n-]4)c(-c4ccc(C(=O)O)cc4)c4nc(c(-c5ccc(C(=O)O)cc5)c5ccc2[n-]5)C=C4)C=C3)cc1.[Mn+3] [MnTBAP, Manganese (III) tetrakis(4-benzoic acid) porphyrin]
- activity of prostacyclin synthetase in aortas (prostacyclin synthetase): restored to supranormal levels

Compound: CN(C)CC(=O)Nc1ccc2[nH]c(=O)c3ccccc3c2c1 [PJ34, N-(oxo-5,6-dihdrophenanthridin-2-yl)-N,N-dimethylacetamide]
- poly(ADP-ribosyl)ation of GAPDH induced by 30 mM glucose (GAPDH [1]): completely prevented
- hyperglycemia-induced inhibition of GAPDH activity (GAPDH [2]): prevention
- activation of PKC by 30 mM glucose (protein kinase C): completely prevented
- effect of 30 mM glucose on intracellular AGE formation [3]: completely prevented
- effect of 30 mM glucose on UDP-N-acetylglucosamine concentration (hexosamine pathway) (hexosamine pathway): completely prevented
- effect of 30 mM glucose on NFκB activation (NFκB): completely prevented

Compound: CCCCCCCCCCCCCCC1(C(=O)O)CO1 (stereo not shown) [TDGA]
- ability of FFAs to induce reactive oxygen species in endothelial cells [4]: inhibited

Compound: O=C(O)c1cccnc1 [nicotinic acid]
- activity of prostacyclin synthetase in aortas (prostacyclin synthetase): restored to normal levels

Compound: CCCCCCCC/C=C\CCCCCCCC(=O)O [oleic acid]
- increase of PARP activation [5]: 1.5 fold
